# Assay results from PubChem BioAssay AID1963833 (Molecular Pharmacology Branch, DTP, NCI, 2024).
# pIC50: −log10 of the molar value. “And” between values parts separate entries of the source, which are not always exact repeats. Equal values may be shown once.
# Test system: 883617-216-R-J1-PDC complex spheroid viability
# Assay: Anticancer human tumor 883617-216-R-J1-PDC patient-derived bladder carcinoma cell line growth inhibition [POLQ]
# Settings: for viability, T/C: stronger effect = lower value
# In short: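 PDC + HUVEC + MSC complex spheroids; POLQ inhibitors ± partner drugs; top conc. at/near clinical Cmax, else 10 microM (SN-38 1 microM), half-log dilutions; 37 degrees C, 5% CO2.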
# [1] = curve of first compound, second compound 0.0316 µM
# [2] = curve of first compound, second compound 0.1 µM
# [3] = curve of first compound, second compound 0.316 µM
# [4] = curve of first compound, second compound 1 µM
# [5] = curve of first compound, second compound 3.16 µM
# [6] = curve of first compound, second compound 10 µM
# [7] = second compound 0.0316 µM, first compound 0.0316 µM
# [8] = second compound 0.0316 µM, first compound 0.1 µM
# [9] = second compound 0.0316 µM, first compound 0.316 µM
# [10] = second compound 0.0316 µM, first compound 1 µM
# [11] = second compound 0.0316 µM, first compound 3.16 µM
# [12] = second compound 0.0316 µM, first compound 10 µM
# [13] = second compound 0.1 µM, first compound 0.0316 µM
# [14] = second compound 0.1 µM, first compound 0.1 µM
# [15] = second compound 0.1 µM, first compound 0.316 µM
# [16] = second compound 0.1 µM, first compound 1 µM
# [17] = second compound 0.1 µM, first compound 3.16 µM
# [18] = second compound 0.1 µM, first compound 10 µM
# [19] = second compound 0.316 µM, first compound 0.0316 µM
# [20] = second compound 0.316 µM, first compound 0.1 µM
# [21] = second compound 0.316 µM, first compound 0.316 µM
# [22] = second compound 0.316 µM, first compound 1 µM
# [23] = second compound 0.316 µM, first compound 3.16 µM
# [24] = second compound 0.316 µM, first compound 10 µM
# [25] = second compound 1 µM, first compound 0.0316 µM
# [26] = second compound 1 µM, first compound 0.1 µM
# [27] = second compound 1 µM, first compound 0.316 µM
# [28] = second compound 1 µM, first compound 1 µM
# [29] = second compound 1 µM, first compound 3.16 µM
# [30] = second compound 1 µM, first compound 10 µM
# [31] = second compound 3.16 µM, first compound 0.0316 µM
# [32] = second compound 3.16 µM, first compound 0.1 µM
# [33] = second compound 3.16 µM, first compound 0.316 µM
# [34] = second compound 3.16 µM, first compound 1 µM
# [35] = second compound 3.16 µM, first compound 3.16 µM
# [36] = second compound 3.16 µM, first compound 10 µM
# [37] = second compound 10 µM, first compound 0.0316 µM
# [38] = second compound 10 µM, first compound 0.1 µM
# [39] = second compound 10 µM, first compound 0.316 µM
# [40] = second compound 10 µM, first compound 1 µM
# [41] = second compound 10 µM, first compound 3.16 µM
# [42] = second compound 10 µM, first compound 10 µM
# 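Note: spheroids exposed to compounds for seven days before readout.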
# 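Throughout, for viability, T/C: 100% = DMSO vehicle control viability.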
structure (smiles),measurement,setting,value
CCc1cc2c(N3CCc4c(cc(Cn5ccnc5)cc4-c4cn(C)nc4C(F)(F)F)C3=O)cc(C)nc2c(OC)n1 + COC1C(OC(N)=O)C(O)C(Oc2ccc3c(O)c(NC(=O)c4ccc(O)c(CC=C(C)C)c4)c(=O)oc3c2C)OC1(C)C,pIC50,[1],< 5.00
same,pIC50,[2],5.06
same,pIC50,[3],5.03
same,pIC50,[4],< 5.00
same,pIC50,[5],< 5.00
same,pIC50,[6],< 5.00
same,"viability, T/C",[7],96.2%
same,"viability, T/C",[8],105%
same,"viability, T/C",[9],96.8%
same,"viability, T/C",[10],80.6%
same,"viability, T/C",[11],77.2%
same,"viability, T/C",[12],58.9%
same,"viability, T/C",[13],98.4%
same,"viability, T/C",[14],106%
same,"viability, T/C",[15],109%
same,"viability, T/C",[16],94.9%
same,"viability, T/C",[17],68%
same,"viability, T/C",[18],47.6%
same,"viability, T/C",[19],107%
same,"viability, T/C",[20],109%
same,"viability, T/C",[21],105%
same,"viability, T/C",[22],86.2%
same,"viability, T/C",[23],75%
same,"viability, T/C",[24],48%
same,"viability, T/C",[25],99%
same,"viability, T/C",[26],101%
same,"viability, T/C",[27],96.6%
same,"viability, T/C",[28],106%
same,"viability, T/C",[29],75.3%
same,"viability, T/C",[30],61.3%
same,"viability, T/C",[31],96.3%
same,"viability, T/C",[32],103%
same,"viability, T/C",[33],115%
same,"viability, T/C",[34],89.7%
same,"viability, T/C",[35],75.8%
same,"viability, T/C",[36],58.4%
same,"viability, T/C",[37],99.8%
same,"viability, T/C",[38],99.6%
same,"viability, T/C",[39],97.1%
same,"viability, T/C",[40],97.4%
same,"viability, T/C",[41],72.7%
same,"viability, T/C",[42],59.4%
CC1COCCN1c1cc(C2(S(C)(=N)=O)CC2)nc(-c2ccnc3[nH]ccc23)n1 (stereo unspecified),"viability, T/C",compound 0.0316 µM,98.9% and 101% and 87.7%
same,"viability, T/C",compound 0.1 µM,89.9% and 94.3% and 103%
same,"viability, T/C",compound 0.316 µM,98.4% and 83.1% and 84%
same,"viability, T/C",compound 1 µM,71% (2×) and 73.5%
same,"viability, T/C",compound 3.16 µM,54.2% and 53.8% and 48.3%
same,"viability, T/C",compound 10 µM,30.1% and 34.3% and 34.5%
same,pIC50,curve of compound,5.46 and 5.39 and 5.55
O=c1[nH]cc(F)c(=O)[nH]1 + COC1C(OC(N)=O)C(O)C(Oc2ccc3c(O)c(NC(=O)c4ccc(O)c(CC=C(C)C)c4)c(=O)oc3c2C)OC1(C)C,pIC50,[1],< 5.00
same,pIC50,[2],< 5.00
same,pIC50,[3],< 5.00
same,pIC50,[4],< 5.00
same,pIC50,[5],< 5.00
same,pIC50,[6],< 5.00
same,"viability, T/C",[7],106%
same,"viability, T/C",[8],96.4%
same,"viability, T/C",[9],104%
same,"viability, T/C",[10],105%
same,"viability, T/C",[11],76.7%
same,"viability, T/C",[12],59.8%
same,"viability, T/C",[13],103%
same,"viability, T/C",[14],105%
same,"viability, T/C",[15],99.4%
same,"viability, T/C",[16],94.6%
same,"viability, T/C",[17],70.9%
same,"viability, T/C",[18],60.9%
same,"viability, T/C",[19],88.2%
same,"viability, T/C",[20],99.6%
same,"viability, T/C",[21],92.2%
same,"viability, T/C",[22],93%
same,"viability, T/C",[23],84.4%
same,"viability, T/C",[24],63.5%
same,"viability, T/C",[25],104%
same,"viability, T/C",[26],94.2%
same,"viability, T/C",[27],117%
same,"viability, T/C",[28],80.2%
same,"viability, T/C",[29],78%
same,"viability, T/C",[30],69%
same,"viability, T/C",[31],112%
same,"viability, T/C",[32],92.8%
same,"viability, T/C",[33],95.5%
same,"viability, T/C",[34],91.7%
same,"viability, T/C",[35],84.9%
same,"viability, T/C",[36],65.4%
same,"viability, T/C",[37],95.2%
same,"viability, T/C",[38],99.6%
same,"viability, T/C",[39],99.7%
same,"viability, T/C",[40],85.3%
same,"viability, T/C",[41],81.4%
same,"viability, T/C",[42],78.2%
